Key:
Test in all cases: Calcium transient measurements (Fluo-3) in cultured myotubes in response to RyR1 agonist
[1] = biological target: T1, RyR1 (Mus musculus, UniProt E9PZQ0); format: cell-based; conditions: 4-CmC 0.5 mM, normal myotubes
T1 construct: produced substantial Ca^2+ release in both normal and Ryr1^m1Nisw/m1Nisw myotubes; endogenous in cells; host or cells: cultured myotubes from locomotor-normal mouse embryos
From the text: (§1) RyR1 functions as a muscle isotype of ryanodine receptors that is mechanically activated by Dihydropyridine receptor (hereinafter “DHPR”) to release Ca^2+ from the sarcoplasmic reticulum (hereinafter SR), thus evoking excitation-contraction coupling (hereinafter E-C coupling). In some exemplary methods, whole-cell clamping in combination with a fluorescent Ca^2+ indicator, such as Fluo-3 AM, was used to study the E-C coupling function of RyR1^m1Nisw mutant protein in cultured myotubes. […] Addition of the RyR1 agonist, 4-chloro-m-cresol (4-CmC; 0.5 mM), produced substantial Ca^2+ release in both normal and Ryr1^m1Nisw/m1Nisw myotubes (peak ΔF/F of 1.4±0.1; n=5 vs. 1.2±0.1; n=3, respectively; p>0.05; FIG. 2d, e), compared to Ryr1^tm1Alle/tm1Alle null myotubes (ΔF/F 0.1±0.0; n=6; FIG. 2e). […] However, the rate of SR Ca^2+ release in response to 4-CmC was much slower in Ryr1^m1Nisw/m1Nisw versus normal myotubes (t1/2act=6.5±2.4 vs. 2.2±0.6 s, respectively; p<0.01; FIG. 2d). […] Under controlled physiological conditions, RyR1^m1Nisw/m1Nisw protein may be non-functional compared to wild type RyR1 in skeletal muscle.
(§2) FIG. 2a provides representative recordings of myoplasmic Ca^2+ transients elicited by 50-ms depolarizations from −50 mV to the indicated test potentials for locomotor normal myotubes (left; L. Normal) and Ryr1^m1Nisw/m1Nisw myotubes (right). […] FIG. 2c represents an exemplary histogram illustrating fractions of myotubes that contracted in response to a 100 V, 10 ms electrical stimulus for normal myotubes (black bar), Ryr1^m1Nisw/m1Nisw myotubes, and Ryr1^m1Nisw/m1Nisw myotubes transfected with YFP-tagged wild type RyR1 (RyR1-YFP, grey bar). The total number of myotubes tested is indicated above each bar. The defect of contraction observed in Ryr1^m1Nisw/m1Nisw myotubes (0%) was restored to 50-60% by expression of RyR1-YFP compared to the normal myotubes (90%). […] FIG. 2e represents an exemplary histogram of half-rise time of Ca^2+ transients in response to 4-CmC observed in normal (blackzbar), Ryr1^m1Nisw/m1Nisw (grey bar) and RyR1^tm1Alle/tm1Alle (white bar) myotubes. Error bars represent±SEM. An asterisk indicates a significant difference (p=0.006; t-test). The total number of myotubes tested is indicated above each bar.
(§3) Intracellular Ca^2+ was recorded with Fluo-3 (Invitrogen) at a final concentration of 200 μM that was injected by whole cell configuration, a waiting period of >5 min was used to allow the dye to diffuse into the cell interior. The total change in fluorescence (ΔF/F) was determined from the change in peak fluorescence from initial baseline during stimulation and F was the fluorescence immediately before the test pulse minus the measured average background (non Fluo-3) fluorescence before dye entry. For normal myotubes, average values of fluorescence change (ΔF) for each test potential (V) were fitted according to: (ΔF)=(ΔF)max/{1+exp[(VF−V)/kF]}, where (ΔF)max=1093 au, VF=−1.4 mV and kF=5.5 mV. Fluorescence emission was measured by fluorometer. Ryr1 cDNA was provided by Kurt Beam and Roger Bannister assisted in these experiments.

[2] = tested on: RyR1; format: cell-based, mouse; conditions: 4-CmC; Ryr1^tm1Alle/tm1Alle null myotubes; n=6
From the text: as §1, §2, §3

[3] = biological target: T2, RyR1 (Mus musculus, UniProt E9PZQ0, E4242G); format: cell-based; conditions: 4-CmC 0.5 mM, Ryr1^m1Nisw/m1Nisw myotubes
T2 construct: produced substantial Ca^2+ release in both normal and Ryr1^m1Nisw/m1Nisw myotubes; endogenous in cells; host or cells: cultured myotubes from locomotor-normal mouse embryos
From the text: as §1, §2, §3

T2 sequence (E9PZQ0 whole entry E4242G): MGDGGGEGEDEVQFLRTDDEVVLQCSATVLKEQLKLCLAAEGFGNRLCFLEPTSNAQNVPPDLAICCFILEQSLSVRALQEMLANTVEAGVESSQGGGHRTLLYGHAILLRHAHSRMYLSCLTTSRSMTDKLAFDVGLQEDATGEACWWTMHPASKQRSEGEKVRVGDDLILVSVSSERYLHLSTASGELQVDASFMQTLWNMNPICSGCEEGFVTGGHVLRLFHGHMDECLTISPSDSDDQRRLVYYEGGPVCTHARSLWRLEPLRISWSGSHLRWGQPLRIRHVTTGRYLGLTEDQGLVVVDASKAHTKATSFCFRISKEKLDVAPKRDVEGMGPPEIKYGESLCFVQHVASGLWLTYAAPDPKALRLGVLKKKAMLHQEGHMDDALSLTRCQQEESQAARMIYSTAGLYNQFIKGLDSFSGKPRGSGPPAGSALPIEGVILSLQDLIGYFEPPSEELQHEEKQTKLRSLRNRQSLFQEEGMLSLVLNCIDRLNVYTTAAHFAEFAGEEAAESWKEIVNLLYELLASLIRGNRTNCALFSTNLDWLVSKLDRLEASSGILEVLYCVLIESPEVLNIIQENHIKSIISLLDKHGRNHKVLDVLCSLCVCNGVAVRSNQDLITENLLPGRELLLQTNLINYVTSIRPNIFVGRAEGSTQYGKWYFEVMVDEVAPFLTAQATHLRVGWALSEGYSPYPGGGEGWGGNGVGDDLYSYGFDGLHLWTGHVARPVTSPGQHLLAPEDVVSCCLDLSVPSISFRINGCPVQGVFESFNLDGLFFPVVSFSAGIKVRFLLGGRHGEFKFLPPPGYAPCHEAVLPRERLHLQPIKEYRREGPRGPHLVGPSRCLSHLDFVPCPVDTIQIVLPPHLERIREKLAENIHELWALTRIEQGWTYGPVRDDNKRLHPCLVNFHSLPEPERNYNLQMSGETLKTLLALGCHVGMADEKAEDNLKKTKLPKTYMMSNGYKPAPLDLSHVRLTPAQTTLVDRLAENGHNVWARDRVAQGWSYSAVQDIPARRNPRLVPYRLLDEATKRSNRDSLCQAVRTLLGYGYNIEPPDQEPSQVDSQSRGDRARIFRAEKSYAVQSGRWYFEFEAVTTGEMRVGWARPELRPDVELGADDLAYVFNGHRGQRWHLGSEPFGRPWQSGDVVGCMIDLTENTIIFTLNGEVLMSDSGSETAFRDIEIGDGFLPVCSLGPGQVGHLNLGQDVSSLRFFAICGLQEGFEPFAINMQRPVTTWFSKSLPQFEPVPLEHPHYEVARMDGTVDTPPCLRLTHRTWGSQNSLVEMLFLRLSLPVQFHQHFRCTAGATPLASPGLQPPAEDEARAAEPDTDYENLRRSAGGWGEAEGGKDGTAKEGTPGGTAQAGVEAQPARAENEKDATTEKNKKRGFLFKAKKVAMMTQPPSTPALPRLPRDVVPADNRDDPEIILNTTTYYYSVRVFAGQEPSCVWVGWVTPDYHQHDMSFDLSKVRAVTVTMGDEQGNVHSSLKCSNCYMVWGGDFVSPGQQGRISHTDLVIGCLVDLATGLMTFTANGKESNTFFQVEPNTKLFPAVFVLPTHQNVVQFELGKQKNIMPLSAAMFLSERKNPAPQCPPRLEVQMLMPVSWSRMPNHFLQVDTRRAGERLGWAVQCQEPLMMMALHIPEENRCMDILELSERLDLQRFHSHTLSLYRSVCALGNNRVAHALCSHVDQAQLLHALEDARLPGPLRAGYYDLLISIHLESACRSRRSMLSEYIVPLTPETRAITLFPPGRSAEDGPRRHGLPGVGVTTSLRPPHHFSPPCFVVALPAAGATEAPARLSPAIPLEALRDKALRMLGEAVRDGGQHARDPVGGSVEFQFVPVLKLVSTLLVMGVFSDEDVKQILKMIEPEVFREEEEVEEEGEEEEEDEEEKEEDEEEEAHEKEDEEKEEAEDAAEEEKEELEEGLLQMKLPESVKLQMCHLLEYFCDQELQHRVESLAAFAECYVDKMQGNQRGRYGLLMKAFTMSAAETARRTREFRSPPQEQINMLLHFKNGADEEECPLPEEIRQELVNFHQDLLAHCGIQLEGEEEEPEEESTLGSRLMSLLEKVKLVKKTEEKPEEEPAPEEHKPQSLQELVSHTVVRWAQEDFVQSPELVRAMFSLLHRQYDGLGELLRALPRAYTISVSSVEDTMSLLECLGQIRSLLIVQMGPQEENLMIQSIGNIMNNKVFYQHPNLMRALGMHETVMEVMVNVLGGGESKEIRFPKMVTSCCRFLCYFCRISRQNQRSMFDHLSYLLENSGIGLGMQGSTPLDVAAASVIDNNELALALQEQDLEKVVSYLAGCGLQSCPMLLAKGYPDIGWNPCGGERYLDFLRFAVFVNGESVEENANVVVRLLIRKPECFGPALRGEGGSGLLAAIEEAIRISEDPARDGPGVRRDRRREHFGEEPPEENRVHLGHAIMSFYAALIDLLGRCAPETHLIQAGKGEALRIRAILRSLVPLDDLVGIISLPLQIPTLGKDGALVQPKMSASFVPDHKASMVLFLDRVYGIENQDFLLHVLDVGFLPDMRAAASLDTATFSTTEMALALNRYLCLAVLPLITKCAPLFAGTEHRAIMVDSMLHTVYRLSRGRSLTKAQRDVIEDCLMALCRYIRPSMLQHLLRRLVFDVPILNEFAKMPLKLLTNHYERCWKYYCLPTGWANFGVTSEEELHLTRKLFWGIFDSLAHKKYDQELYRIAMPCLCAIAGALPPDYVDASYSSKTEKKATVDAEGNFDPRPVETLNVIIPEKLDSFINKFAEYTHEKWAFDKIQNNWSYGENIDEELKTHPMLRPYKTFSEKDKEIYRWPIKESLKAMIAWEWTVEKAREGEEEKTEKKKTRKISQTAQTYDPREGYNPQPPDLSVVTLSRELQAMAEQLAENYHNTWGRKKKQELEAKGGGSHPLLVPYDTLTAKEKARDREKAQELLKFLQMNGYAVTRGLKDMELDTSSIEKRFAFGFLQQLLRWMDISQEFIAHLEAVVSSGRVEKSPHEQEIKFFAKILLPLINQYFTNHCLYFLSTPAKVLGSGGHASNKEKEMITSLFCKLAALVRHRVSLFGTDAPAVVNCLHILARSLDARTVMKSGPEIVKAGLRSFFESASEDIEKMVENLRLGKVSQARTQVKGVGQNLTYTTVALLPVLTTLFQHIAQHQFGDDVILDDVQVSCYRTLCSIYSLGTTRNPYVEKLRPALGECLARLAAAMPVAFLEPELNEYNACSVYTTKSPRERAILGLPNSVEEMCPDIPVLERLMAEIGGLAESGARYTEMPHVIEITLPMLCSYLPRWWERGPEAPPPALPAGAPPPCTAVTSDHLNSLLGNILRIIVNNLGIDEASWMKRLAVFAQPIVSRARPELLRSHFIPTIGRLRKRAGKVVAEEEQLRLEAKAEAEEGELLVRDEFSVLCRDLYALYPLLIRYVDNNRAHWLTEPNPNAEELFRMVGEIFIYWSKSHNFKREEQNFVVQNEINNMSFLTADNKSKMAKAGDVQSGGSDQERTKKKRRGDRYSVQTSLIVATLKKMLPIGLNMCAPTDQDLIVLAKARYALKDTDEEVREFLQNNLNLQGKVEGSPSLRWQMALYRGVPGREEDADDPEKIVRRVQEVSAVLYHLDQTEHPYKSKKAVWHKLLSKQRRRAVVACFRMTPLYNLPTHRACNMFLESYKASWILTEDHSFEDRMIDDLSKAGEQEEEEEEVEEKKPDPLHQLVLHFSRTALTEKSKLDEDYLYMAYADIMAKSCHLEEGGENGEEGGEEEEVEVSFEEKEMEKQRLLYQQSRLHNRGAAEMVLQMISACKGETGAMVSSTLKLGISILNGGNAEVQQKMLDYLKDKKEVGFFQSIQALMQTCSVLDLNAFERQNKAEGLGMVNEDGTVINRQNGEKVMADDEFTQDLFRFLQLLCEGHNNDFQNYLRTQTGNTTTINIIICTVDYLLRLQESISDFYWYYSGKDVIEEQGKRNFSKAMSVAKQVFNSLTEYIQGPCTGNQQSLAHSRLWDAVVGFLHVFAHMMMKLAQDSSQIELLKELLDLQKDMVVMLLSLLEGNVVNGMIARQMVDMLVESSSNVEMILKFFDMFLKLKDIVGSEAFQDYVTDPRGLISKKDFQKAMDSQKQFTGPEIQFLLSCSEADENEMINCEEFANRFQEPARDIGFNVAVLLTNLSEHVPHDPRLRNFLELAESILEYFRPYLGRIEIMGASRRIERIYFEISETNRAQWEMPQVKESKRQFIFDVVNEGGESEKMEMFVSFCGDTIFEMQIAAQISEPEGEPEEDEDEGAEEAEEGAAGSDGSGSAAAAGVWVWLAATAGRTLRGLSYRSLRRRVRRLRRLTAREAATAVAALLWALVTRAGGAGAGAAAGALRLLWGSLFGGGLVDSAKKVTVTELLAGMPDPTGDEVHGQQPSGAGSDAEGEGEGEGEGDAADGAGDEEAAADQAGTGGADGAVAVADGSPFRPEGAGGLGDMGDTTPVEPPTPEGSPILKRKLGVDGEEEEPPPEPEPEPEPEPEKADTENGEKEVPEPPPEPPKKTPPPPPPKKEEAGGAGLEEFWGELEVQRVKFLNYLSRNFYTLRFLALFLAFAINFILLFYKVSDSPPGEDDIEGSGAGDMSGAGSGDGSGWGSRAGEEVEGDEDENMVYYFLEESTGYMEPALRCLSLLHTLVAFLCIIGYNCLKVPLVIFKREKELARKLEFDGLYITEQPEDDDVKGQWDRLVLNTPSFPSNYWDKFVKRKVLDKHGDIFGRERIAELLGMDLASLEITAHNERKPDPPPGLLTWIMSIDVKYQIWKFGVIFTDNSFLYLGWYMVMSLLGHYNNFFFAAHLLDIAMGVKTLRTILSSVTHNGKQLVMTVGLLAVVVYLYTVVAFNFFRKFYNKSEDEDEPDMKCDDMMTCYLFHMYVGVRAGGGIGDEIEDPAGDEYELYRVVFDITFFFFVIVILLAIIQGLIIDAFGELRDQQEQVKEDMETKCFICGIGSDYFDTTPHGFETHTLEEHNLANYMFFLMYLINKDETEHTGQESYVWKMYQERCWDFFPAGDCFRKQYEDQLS
T1 sequence (E9PZQ0 whole entry): as the sequence (E9PZQ0 whole entry E4242G) above, with G4242E counted along it

## Cc1cc(O)ccc1Cl [4-CmC, 4-chloro-m-cresol]
[1]
  t1/2act (rate of SR Ca^2+ release): 2.2 ± 0.6 s
[1]; n=5
  peak ΔF/F (Ca^2+ release): 1.4±0.1
[2]
  ΔF/F (Ca^2+ release): 0.1±0.0
[3]
  t1/2act (rate of SR Ca^2+ release): 6.5 ± 2.4 s
[3]; n=3
  peak ΔF/F (Ca^2+ release): 1.2±0.1

Source: patent publication US20130273181A1, “METHODS AND COMPOSITIONS FOR DIAGNOSING AND TREATING MUSCLE MYOPATHY DISORDERS” (The Regents of the University of Colorado, a body Corporate, priority 2012, published 2013)
